#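 Tested at 5 concentrations; 48 h exposure; 96-well plates; endpoints linearly interpolated, else capped at highest concentration. TGI: total growth inhibition.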
# Tests used:
# Assay in all cases: NCI tumour cell line growth inhibition, 48 h
# [1] = test system: OVCAR-4 ovarian
# [2] = test system: COLO 205 colon
# [3] = test system: UACC-62 melanoma
# [4] = test system: A549 NSCLC
# [5] = test system: NCI-H460 lung
# [6] = test system: MDA-N
# [7] = test system: SK-MEL-2 melanoma
# [8] = test system: EKVX NSCLC
# [9] = test system: OVCAR-5 ovarian
# [10] = test system: CAKI-1 renal
# [11] = test system: IGROV1 ovarian
# [12] = test system: MDA-MB-231 breast
# [13] = test system: BT-549 breast
# [14] = test system: NCI-H522 lung
# [15] = test system: PC-3 prostate
# [16] = test system: SF-268 CNS
# [17] = test system: SF-295 CNS
Structure (SMILES),TGI [1] [µM],TGI [2] [µM],TGI [3] [µM],TGI [4] [µM],TGI [5] [µM],TGI [6] [µM],TGI [7] [µM],TGI [8] [µM],TGI [9] [µM],TGI [10] [µM],TGI [11] [µM],TGI [12] [µM],TGI [13] [µM],TGI [14] [µM],TGI [15] [µM],TGI [16] [µM],TGI [17] [µM]
CCOC(=O)/C=C(/C(=O)OCC)n1cc(C)c(=O)[nH]c1=O,> 32.2,4.07,15.8,31.5,29.4,17.7,18.4,15.6,13.3,2.57,12.9,18.4,22.8,2.14,20.6,24.6,31.6
COC(=O)C(Cc1ccccc1)NP(=O)(O)OCC1OC(n2ccc(N)nc2=O)C(O)C1O (stereo unspecified),> 100,> 100,> 100,> 100,> 100,> 100,> 100,> 100,> 100,> 100,> 100,> 100,> 100,> 100,> 100,> 100,> 100
CC(C)C(=O)/C=C/c1ccc(Cl)cc1Cl,20.9,32.7,25.7,30.4,23.4,7.06,27.6,31,30.7,24.8,28.4,38.7,14.9,22.8,32.8,22.5,30.9
O=C1C2CCCCC2C(=O)N1n1c(Cc2ccccc2)n[nH]c1=O (stereo unspecified),> 100,> 100,> 100,> 100,> 100,> 100,> 100,> 100,> 100,> 100,> 100,> 100,> 100,> 100,> 100,> 100,> 100
CN(C(=O)C12C3(C(=O)O)C4C5(C(=O)O)C3C1(C(=O)O)C5C42C(=O)O)C(C)(C)C (stereo unspecified),> 100,> 100,> 100,> 100,> 100,> 100,> 100,> 100,> 100,> 100,> 100,> 100,> 100,> 100,> 100,> 100,> 100
N#CCc1nc(-c2cc3ccc(O)cc3oc2=O)cs1,> 100,> 100,63.3,> 100,> 100,> 100,66,> 100,> 100,> 100,> 100,> 100,> 100,> 100,> 100,> 100,> 100
O=S(=O)(N1CCCCN(S(=O)(=O)C(F)(F)F)CCCN(S(=O)(=O)C(F)(F)F)CCCCN(S(=O)(=O)C(F)(F)F)CCCN(S(=O)(=O)C(F)(F)F)CCCCN(S(=O)(=O)C(F)(F)F)CCCN(S(=O)(=O)C(F)(F)F)CCCCN(S(=O)(=O)C(F)(F)F)CCC1)C(F)(F)F,> 100,> 100,> 31.6,> 31.6,> 31.6,> 31.6,> 100,> 31.6,> 100,> 31.6,> 31.6,> 31.6,> 31.6,> 31.6,> 31.6,> 31.6,> 31.6
COc1cc([N+](=O)[O-])cc2c1NC(=O)C2(C)SC (stereo unspecified),> 100,> 100,> 100,> 100,> 100,> 100,> 100,> 100,> 100,> 100,> 100,> 100,> 100,> 100,> 100,> 100,> 100
O=C(O)C(C(F)(F)F)C(F)(F)F (tested in a mixture with another compound),> 100,> 100,> 100,> 100,> 100,> 100,> 100,> 100,> 100,> 100,> 100,> 100,> 100,> 100,> 100,> 100,> 100
O=c1oc2ccccc2c(O)c1Cc1ccccc1Cc1c(O)c2ccccc2oc1=O,> 100,> 100,> 100,> 100,> 100,> 100,> 100,> 100,> 100,> 100,> 100,> 100,> 100,> 100,> 100,> 100,> 100
CCOC(=O)n1ccc2c(C(=O)OC)c(C(=O)OC)cc(/C(=C/C(=O)OC)C(=O)OC)c21,> 100,> 100,> 100,> 100,> 100,> 100,> 100,> 100,> 100,> 100,> 100,> 100,> 100,> 100,> 100,> 100,> 100
N#CC(C#N)=C(N)/C(C#N)=C/c1ccc(O)c(O)c1,> 100,> 100,> 100,> 100,> 100,> 100,> 100,> 100,> 100,> 100,> 100,> 100,> 100,> 100,> 100,> 100,> 100
NC(=S)NN=C1Cc2ccccc2C1,> 100,> 100,> 100,> 100,> 100,> 100,> 100,> 100,> 100,> 100,> 100,> 100,> 100,> 100,> 100,> 100,> 100

# — PubChem BioAssay (NCI)
